How the values were obtained:
GPR3 = target: T1, GPR3 (Homo sapiens, UniProt P46089); assay: GPR3 antagonist functional cAMP assay (LANCE Ultra cAMP TR-FRET, CHO cells stably expressing GPR3); type: cell-based
T1 construct: expressed in transfected cells; host or cells: CHO cells
Outline: (§1)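 cAMP quantified by TR-FRET immunoassay after 45 min compound treatment at 37° C of CHO cells stably expressing GPR3 or GPR6, in PDE-inhibitor (Ro 20-1724, 150 μM) buffer with 0.1% BSA. Data scaled between DMSO (0%) and reference compounds (100%); antagonist IC50 by 4-parameter logistic fit.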

GPR6 = target: T2, GPR6 (Homo sapiens, UniProt P46095); assay: GPR6 antagonist functional cAMP assay (LANCE Ultra cAMP TR-FRET, CHO cells stably expressing GPR6); type: cell-based
T2 construct: expressed in transfected cells; host or cells: CHO cells
T2 sequence (P46095 whole entry): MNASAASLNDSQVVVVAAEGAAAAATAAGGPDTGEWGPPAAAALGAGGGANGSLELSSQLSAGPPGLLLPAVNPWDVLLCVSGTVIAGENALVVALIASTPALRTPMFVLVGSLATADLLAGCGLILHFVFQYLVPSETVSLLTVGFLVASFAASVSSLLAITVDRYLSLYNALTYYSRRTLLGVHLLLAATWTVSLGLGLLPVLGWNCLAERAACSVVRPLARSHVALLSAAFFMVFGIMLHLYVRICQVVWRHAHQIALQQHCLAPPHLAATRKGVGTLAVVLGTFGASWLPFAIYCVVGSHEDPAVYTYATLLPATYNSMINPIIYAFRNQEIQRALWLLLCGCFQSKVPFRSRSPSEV
Outline: as §1

[1] = CHO cells stably expressing GPR3, cAMP assay (Example 24)
[2] = CHO cells stably expressing GPR6, cAMP assay (Example 24)

T1 sequence (P46089 whole entry, species assumed): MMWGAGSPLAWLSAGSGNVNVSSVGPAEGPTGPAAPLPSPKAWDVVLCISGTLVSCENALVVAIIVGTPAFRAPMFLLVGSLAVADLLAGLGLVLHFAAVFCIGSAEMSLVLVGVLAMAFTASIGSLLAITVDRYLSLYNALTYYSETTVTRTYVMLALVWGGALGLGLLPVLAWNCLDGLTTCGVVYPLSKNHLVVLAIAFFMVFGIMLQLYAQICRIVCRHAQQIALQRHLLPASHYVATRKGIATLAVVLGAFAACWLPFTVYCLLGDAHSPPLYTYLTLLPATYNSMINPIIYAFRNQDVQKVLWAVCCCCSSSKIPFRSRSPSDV

SMILES | IC50 (GPR3; [1]) [nM] | IC50 (GPR6; [2]) [nM] | IC50 (GPR3; procedure of Example 24) [nM] | IC50 (GPR6; procedure of Example 24) [nM] | further results
CCc1nccc(-c2nc3c(nc2N2CCC(Oc4ccc(F)cc4F)CC2)CCN(C(C)=O)C3)n1 [Compound 479, 1-{2-[4-(2,4-difluorophenoxy)piperidin-1-yl]-3-(2-ethylpyrimidin-4-yl)-5H,6H,7H,8H-pyrido[3,4-b]pyrazin-6-yl}ethan-1-one] | 1000 to 30000 | 1000 to 30000 |  |  | 
COc1cccc(CN2CCN(c3nc4c(nc3-c3cnn(C)c3)CN(C(C)=O)CC4)CC2)c1F [Compound 318, 1-(2-{4-[(2-fluoro-3-methoxyphenyl)methyl]piperazin-1-yl}-3-(1-methyl-1H-pyrazol-4-yl)-5H,6H,7H,8H-pyrido[3,4-b]pyrazin-6-yl)ethan-1-one] |  |  | 1000 to 30000 | ≥ 30000 | 
COC(=O)N1CCc2nc(N3CCC(Oc4ccc(F)cc4F)CC3)c(-c3cn[nH]c3)nc2C1 [Compound 154, methyl 2-[4-(2,4-difluorophenoxy)piperidin-1-yl]-3-(1H-pyrazol-4-yl)-5H,6H,7H,8H-pyrido[3,4-b]pyrazine-6-carboxylate] | 1000 to 30000 | < 100 |  |  | 
COC1CCC(c2nc3c(nc2N2CCC(Oc4ccc(F)cc4F)CC2)CCN(C(C)=O)C3)CC1 (stereo not drawn) [Compound 373, 1-(2-(4-(2,4-difluorophenoxy)piperidin-1-yl)-3-(4-methoxycyclohexyl)-7,8-dihydropyrido[3,4-b]pyrazin-6(5H)-yl)ethan-1-one] |  |  | 1000 to 30000 | 100 to 1000 | 
CC(=O)N1CCc2nc(N3CCN(Cc4cc(Cl)ccc4F)CC3)c(-c3ccc(F)c(N)n3)nc2C1 [Compound 582, 1-[3-(6-amino-5-fluoro-2-pyridyl)-2-{4-[(5-chloro-2-fluorophenyl)methyl]-1-piperazinyl}-5,6,7,8-tetrahydro-1,4,6-triaza-6-naphthyl]-1-ethanone] |  |  |  |  | IC50 (GPR3; CHO cells stably expressing GPR3, cAMP assay): 1000 to 30000 nM; IC50 (GPR6; CHO cells stably expressing GPR6, cAMP assay): < 100 nM
Cn1cc(-c2nc3cc([C@@](C)(O)C(C)(C)O)ncc3nc2N2CCC(Oc3ccc(F)cc3F)CC2)cn1 (single isomer, unassigned) [Compound 739] |  |  | 1000 to 30000 | 100 to 1000 | 
Cn1cc(-c2nc3cnc(C(=O)O)cc3nc2N2CCC(Oc3ccc(F)cc3F)CC2)cn1 [Compound 314, 2-[4-(2,4-difluorophenoxy)piperidin-1-yl]-3-(1-methyl-1H-pyrazol-4-yl)pyrido[3,4-b]pyrazine-7-carboxylic acid] |  |  | 1000 to 30000 | 1000 to 30000 | 
C[C@@H](O)[C@@H](O)c1cc2nc(N3CCC(Oc4ccc(F)cc4F)CC3)c(-c3cnn(C)c3)nc2cn1 (single isomer, unassigned) [Compound 472] | 1000 to 30000 | 100 to 1000 |  |  | 
Cn1cc(-c2nc3cnccc3nc2N2CCC(C)(Oc3ccc(F)cc3F)CC2)cn1 [Compound 188, 4-(2,4-difluorophenoxy)-4-methyl-1-[3-(1-methyl-1H-pyrazol-4-yl)pyrido[3,4-b]pyrazin-2-yl]piperidine] | 1000 to 30000 | 100 to 1000 |  |  | 
CC(=O)N1CCc2nc(N3CCC(Oc4ccc(F)cc4F)CC3)c(-c3cnn(CC(C)C)c3)nc2C1 [Compound 195, 1-{2-[4-(2,4-difluorophenoxy)piperidin-1-yl]-3-[1-(2-methylpropyl)-1H-pyrazol-4-yl]-5H,6H,7H,8H-pyrido[3,4-b]pyrazin-6-yl}ethan-1-one] | 1000 to 30000 | 100 to 1000 |  |  | 
OCCOc1cc2nc(-c3cnn(CF)c3)c(N3CCN(Cc4ccc(F)cc4F)CC3)nc2cn1 [Compound 760, 2-(3-{4-[(2,4-difluorophenyl)methyl]-1-piperazinyl}-2-[1-(fluoromethyl)-4-pyrazolyl]-1,4,6-triaza-7-naphthyloxy)ethanol] |  |  | 100 to 1000 | 100 to 1000 | 
CC(=O)Nc1cc2nc(N3CCC(Oc4ccc(F)cc4F)CC3)c(-c3cnn(C)c3)nc2cn1 [Compound 296, N-{2-[4-(2,4-difluorophenoxy)piperidin-1-yl]-3-(1-methyl-1H-pyrazol-4-yl)pyrido[3,4-b]pyrazin-7-yl}acetamide] |  |  | 1000 to 30000 | 1000 to 30000 | 

Source: patent US20260042755A1, “GPR6 INVERSE AGONISTS” (MapLight Therapeutics, Inc., priority 2022, published 2026)
